Assay results as given in patent publication US10011813B2, “Methane oxidation methods and compositions” (California Institute of Technology, priority 2015, dated 2018).
Converted amounts (≈) assume the structure as drawn. “And” between values parts separate entries of the source, which are not always exact repeats. Equal entries are not always repeated.

Experiments:
[1] = test system: methane seep sediment (ANME archaea); assay: AOM rate measurement via 13C-methane (newly formed DIC) in methane seep sediment incubations; format: cell-based, ANME-2a and ANME-2c; settings: for Rate relative to AOM with sulfate: 10 mM; for DIC formed: after 21-day incubation
From the text: General description of methane oxidation measurements via ^13C-methane. Methane oxidation was quantified by determining the production of inorganic carbon (“CO2”). Accurate quantification of the concentration of inorganic carbon formed from methane oxidation is challenging due to 4 main reasons:
A defined amount of added DIC in artificial, buffered seawater was used with a low calcium concentration to prevent carbonate precipitation (see medium composition). As ^13CH4 was the only ^13C-enriched carbon source added, the newly formed ^13C-DIC must be derived from methane. For low methane oxidation rates (less than ca. 5% relative to sulfate as the oxidant or electron acceptor), however, enzyme-catalyzed isotope exchange between methane and DIC, needs to be taken into account, because it contributes to ^13C enrichment of the DIC without net methane oxidation, resulting in an overestimation of net methane oxidation. […] Details of both methods, the ^13CH4 experiments and the standard addition are described herein.
Incubation conditions for AOM rate measurement. Each incubation vial was set up with 1.0 cm^3 wet sediment (wet sediment=volume of sediment after allowing the sediment slurry settle for 48 h) in total slurry volume of […] as follows: Sterile serum vials were closed with butyl rubber stoppers (volume=12.9 ml after closing) and flushed with methane. 1.0 mL ^13CH4 (99% ^13C, Cambridge Isotope Laboratories, containing 0.05 vol % ^13CO2 as an impurity) was introduced anaerobically. 2.0 mL of artificial, anaerobic seawater containing 2.5× the target concentration of the corresponding electron acceptor was injected into the serum vial cooled on ice. For AQDS and 1,5-AQDS, this was a suspension corresponding to 25 mM (see TABLE 3).
The 1 L pyrex bottle with the sediment in the sulfate-free medium (1 part wet sediment in 3 parts of slurry volume) was vigorously shaken each time and 3.0 mL of slurry immediately removed and injected into the individual serum bottles. Each stoppered serum vial was supplemented with unlabeled methane (0.250 MPa overpressure: pressure gauge SSI Technologies, Inc., Media Gauge™) shaken and stored inverted at 4° C. (final headspace: 0.35 MPa methane, with ca. 4% ^13CH4). The exact fractional abundance of ^13C in the methane was quantified via ^1H-NMR spectroscopy for individual incubations.
AOM rate measurements (quantification of newly formed DIC based on ^13CH4). For ^13C-DIC analysis, 0.25 mL of the medium above the settled sediment in the microcosm was sampled with a disposable needle and syringe at each time point (same intervals for all experiments) and centrifuged (16000 rcf, 5 min). The supernatant was transferred into 0.6 mL eppendorf tubes, flash frozen in N2 (l), and stored at −20° C. until measurement. 150 μL of the thawed supernatant was then added to He-flushed vials containing 100 μL H3PO4 (85%). The resulting CO2 was analyzed for the isotopic enrichment (^13F(tn)) on a GC-IR-MS GasBench II (Thermo Scientific). The amount of DIC newly formed (Δ[DIC](tn), see FIG. 6B) was calculated from the measured ^13F (fractional abundance of ^13C), neglecting isotope effects on AOM according to Equation (1): Δ[DIC](tn)=[DIC](t0)*(^13F(tn)−^13F(t0))/(^13F(CH4)−^13F(tn)) (EQ. 1)

[2] = Quantification of AQDS solubility in the incubation medium; format: physicochemical
Description: Quantification of AQDS solubility in the incubation medium. Different regioisomers of AQDS (1,5-AQDS, 2,6-AQDS and 2,7-AQDS) were separately added to the modified artificial seawater described above, to a targeted final concentration of 25 mM. The suspensions were ultra-sonicated at room temperature to dissolve as much of the AQDS as possible. The tubes were kept at 4° C. or at 22.5° C. overnight. The tubes were centrifuged at 4° C. or 22.5° C. (16000 rcf, 30 min). The supernatant (300 μL) was mixed with 300 μL acetate (10.0 mM) as the internal standard and 100 μL deuterated water (99.9% D, Cambridge Isotope Laboratories) was added. The concentration of AQDS was obtained from integration of the ^1H-NMR spectra by comparison relative to the acetate standard.

methane seep sediment = assay: Control experiments without methane (sediment with AQDS under nitrogen); format: cell-based; settings: AQDS 10 mM, after 3 weeks
Description: Quantification of reduced AQDS by iodometry. Reduced AQDS (2,6-AQH2DS) was quantified via iodimetric titration in the anaerobic chamber. A standard solution of ca. 20 mM KI3 was prepared as follows: iodine (254 mg, 2.0 mmol) and potassium iodide (1.66 g, 10 mmol) were dissolved in 100 mL DI water. After 2 days, the clear, dark solution was N2-sparged and brought into the anaerobic chamber. The exact concentration of the KI3 standard solution was quantified to be 19.5 mM via duplicate titration with sodium thiosulfate (exactly 101.5 mM, N2-sparged). Procedure for the quantification of reduced AQDS in the incubations: 1000 μL anaerobic assay solution centrifuged in the anaerobic chamber+200 μL anaerobic HEPES (1.0 M, pH=7.5)+KI3 standard solution as needed until color minimum, added in steps of 100 μL first, then in steps of 10 μL when closer to the equivalence point.
Control experiments without methane. […] To confirm that the methanotrophic microorganisms in the sediment had not been killed during the nitrogen+AQDS incubation, methane was later injected into these incubation bottles after 3 weeks.

For O=C1c2ccc(S(=O)(=O)O)cc2C(=O)c2ccc(S(=O)(=O)O)cc21 [AQDS, 9,10-anthraquinone-2,6-disulfonate], the “Rate relative to AOM with sulfate” value ([1]; no MoO4^2−) was 74%, the “Rate relative to AOM with sulfate” value ([1]; with 25 mM MoO4^2−) was 83% and the “DIC formed from 13C-methane per vial” value ([1]; 50 mmol AQDS (10 mM), no sulfate, 21-day incubation at 4° C.) was “approximately 12.5 mmol”. For the same compound, the DIC formed ([1]; AQDS 10 mM + MoO4^2− 25 mM) was 2.59 mM and 2.82 mM, the DIC formed ([1]; AQDS 10 mM, 4° C.) was 2.39 mM and 2.64 mM and the “initial rates of AOM compared with sulfate” value ([1]; first 6 days, 4° C.) was “equivalent”. For the same compound, the “Solubility in the incubation medium” value ([2]; 4° C.) was 900 µM (≈ 332 µg/mL), the “Solubility in the incubation medium” value ([2]; 22.5° C.) was 1900 µM (≈ 700 µg/mL) and the “reduced AQDS generated without methane” value (methane seep sediment) was “less than 1 mM”.
